Laboratory results from patent US20240216313A1, “ELAFIBRANOR DERIVATIVES AGONISTS OF PPAR FOR USE IN THE TREATMENT OF SEPSIS” (Genfit, priority 2021, published 2024).
Read-outs that look alike come from different tables or passages of the source.

Assays:
[1] = test system: THP1 differentiated macrophages; assay: Macrophage activation: cytokine production by THP1 differentiated macrophages stimulated with LPS (E. coli O55:B5); type: cell-based, human; settings: compound 24 h, then 100 ng/mL LPS E. coli 6 h
Experimental: (§1) In order to test the efficacy of the compounds on macrophage activation and pro-inflammatory cytokine production, 2.5×10^4 THP-1 cells were cultured in a 384-well plate and treated with 100 ng/mL PMA (#P8139, Sigma) for 24 h to induce differentiation into macrophages.
Then, medium was removed and FBS-deprived medium containing the compound of formula (I) was added for 24 h. Finally, THP1 macrophages were stimulated with 100 ng/mL LPS (E. coli O55:B5, #L4005, Sigma) for 6 h.

[2] = test system: LPS-induced endotoxemia; assay: Preclinical model of endotoxemia: hepatic markers (total bilirubin, albumin) and TNFα in rat serum; type: in vivo, male Sprague Dawley rats; settings: rats, 3 mg/kg/day oral gavage 3 days before LPS, blood 3 h after LPS
[3] = test system: CLP induced polymicrobial sepsis; assay: Cecal ligation and puncture (CLP) model of polymicrobial sepsis: survival; type: in vivo, C57BL6J male mice; settings: mice, 0.3 mg/kg p.o.
Experimental: This study aims to investigate the efficacy of Cpd.1 in cecal ligation and puncture (CLP) model in C57BL6J (BL6) male mice. The efficacy of the test compound was evaluated based on the survival rate of the animals within the study period.
C57BL6J male mice (supplier Janvier—France) at 9 weeks of age and weighing 23-25 g on arrival were anesthetized with 250 μL of xylazine/ketamine solution (20 mg/100 g body weight) by intraperitoneal route. A 1-1.5 cm abdominal midline incision was made, and the caecum was located and tightly ligated at half the distance between distal pole and the base of the cecum with 4-0 silk suture (mild grade). The caecum was punctured through-and-through once with a 21-gauge needle from mesenteric toward antimesenteric direction after medium ligation. A small amount of stool was extruded to ensure that the wounds were patent. Then the cecum was replaced in its original position within the abdomen, which was closed with sutures and wound clips. Mice were followed for body weight evolution and mortality rate until Day 6.
Cpd.1 or vehicle (Labrafil M 1944 CS, #3063, Gattefossé) was administrated at 0.3 mg/kg, p.o. for three days before CLP surgery. The day of CLP (day 0), Cpd.1 was administrated 1 h before surgery and pursued daily until day 6. Experiment was terminated at day 7.
Two groups of C57BL6J mice at the age of 9 weeks were treated as described above. • 1. […]

[4] = test system: HepG2 cells; assay: Staurosporin-induced apoptosis in HepG2 cells (caspase 3/7 activity, Caspase Glo); type: cell-based, human; settings: 16 h pre-treatment, then 10 μM staurosporin 4 h; for inhibition at 0.3 µM: Homo sapiens, HepG2, 0.3 μM, read-out: % Inhibition of caspase activity over mean Veh.
Experimental: In order to evaluate the effect of the compounds on human hepatocytes that undergo a cellular stress induced by staurosporin, the human hepatoblastoma-derived HepG2 cell line (ECACC, #85011430, Sigma-Aldrich) was cultured in high-glucose DMEM medium (#41965, Gibco, France) supplemented with 10% of fetal bovine serum (FBS, #10270, Gibco), 1% penicillin/streptomycin (#15140, Gibco), 1% sodium pyruvate (#11360, Gibco) and 1% MEM non-essential amino acids (#11140, Gibco) in a 5% CO2 incubator at 37° C.
To evaluate caspase 3/7 activity, which is a surrogate marker of apoptosis, 1.5×10^4 cells were plated in a 384-well plate (#781080, Greiner, France). After cell adherence (8 hours), cells were serum starved for 16 h in the presence of 0.3 μM of compounds or vehicle. Cpd.1 was also used at 3 and 10 μM. Thereafter, cells were treated with 10 μM staurosporin (#569397, Sigma-Aldrich, Germany) supplemented with compound for additional 4 hours before cell lysis and caspase activity measurement.
Caspase 3/7 activity was measured using Caspase Glow™ 3/7 assay (#G8093, Promega, USA). Luminescence was measured using a Spark microplate reader (#30086376, Tecan, USA). The amount of luminescence (RLU) directly correlates with caspase 3/7 activity.

[5] = test system: THP1 macrophages; assay: Macrophage activation: MCP1 and TNFα secretion induced by LPS from Klebsiella in THP1 macrophages (HTRF); type: cell-based, human; settings: 24 h, then LPS Klebsiella 6 h; for inhibition at 10 µM / inhibition at 1 µM: Homo sapiens; for inhibition at 10 µM: THP-1, 10 μM; for inhibition at 1 µM: THP-1, 1 μM
Experimental: as §1
Then, medium was removed and FBS-deprived medium containing 1 or 10 μM compound was added for 24 h. Finally, THP1 macrophages were stimulated for 6 h with 100 ng/mL LPS (Klebsiella pneumoniae, #L4268, Sigma-Aldrich).
Monocyte chemoattractant protein 1 (MCP1) and […] (TNFα) were measured in cell supernatants by Homogeneous Time Resolved Fluorescence (HTRF, #62[…] for TNFα, and 62HCCL2PEG for MCP1, Cisbio). Fluorescence was measured with Infinite 500 (#30019337, Tecan) to determine the concentration of cytokines.

[6] = read-out: % inhibition of MCP1 secretion over mean Veh.
[7] = read-out: % inhibition of TNFα secretion over mean Veh.

| Structure (SMILES) | inhibition at 10 µM [5, 6] [%] | inhibition at 0.3 µM [4] [%] | inhibition at 10 µM [5, 7] [%] | other results |
| --- | --- | --- | --- | --- |
| COC(CCc1cc(C)c(OC(C)(C)C(=O)O)c(C)c1)c1ccc(OC(F)(F)F)cc1 (stereo not drawn) [Cpd. 1, 2-[4-(3-methoxy-3-(4-(trifluoromethoxy)phenyl)propyl)-2,6-dimethylphenoxy]-2-methylpropanoic acid] |  |  |  | reduction of TNFα secretion [1]: potent at reducing TNFα; reduction of MCP1 secretion ([1]; all doses tested): overpassing the untreated condition for MCP1 secretion at all doses tested; serum total bilirubin level compared to the vehicle condition [2]: completely restored the level of total bilirubin; side effect recorded after each administration [3]: No side effect; reduction of staurosporin-induced caspase activity, dose dependence ([4]; 0.3, 3 and 10 μM): reduced caspase activity induced by staurosporin in a dose-dependent manner |
| Cc1cc(CCC(=O)c2ccc(OC(F)(F)F)cc2)cc(C)c1OC(C)(C)C(=O)O [Cpd. 2, 2-[2,6-dimethyl-4-[3-[4-(trifluoromethyloxy)phenyl]-3-oxo-propyl]phenoxy]-2-methylpropanoic acid] | 106 | 70 |  |  |
| Cc1cc(CCC(=O)c2ccc(C(F)(F)F)cc2)cc(C)c1OC(C)(C)C(=O)O [Cpd. 3, 2-[2,6-dimethyl-4-[3-[4-(trifluoromethyl)phenyl]-3-oxo-propyl]phenoxy]-2-methylpropanoic acid] | 107 |  | 20 |  |
| CSc1ccc(C(CCc2cc(C)c(OC(C)(C)C(=O)O)c(C)c2)OC(C)C)cc1 (stereo not drawn) [Cpd. 5, 2-[2,6-dimethyl-4-[3-[4-(methylthio)phenyl]-3-isopropyloxypropyl]phenoxy]-2-methylpropanoic acid] | 110 |  |  |  |
| Cc1cc(CCC(O)c2ccc(OC(F)(F)F)cc2)cc(C)c1OC(C)(C)C(=O)O (stereo not drawn) [Cpd. 6, 2-(4-(3-hydroxy-3-(4-(trifluoromethoxy)phenyl)propyl)-2,6-dimethylphenoxy)-2-methylpropanoic acid] | 103 | 43 |  |  |
| CON=C(CCc1cc(C)c(OC(C)(C)C(=O)O)c(C)c1)c1ccc(OC(F)(F)F)cc1 [Cpd. 7, 2-(4-(3-(methoxyimino)-3-(4-(trifluoromethoxy)phenyl)propyl)-2,6-dimethylphenoxy)-2-methylpropanoic acid] | 107 | 66 | 42 |  |
| CCOC(CCc1ccc(OC(C)(C)C(=O)O)c(Cl)c1Cl)c1sc(-c2ccc(C(F)(F)F)cc2)nc1C (stereo not drawn) [Cpd. 9, 2-(2,3-dichloro-4-(3-ethoxy-3-(4-methyl-2-(4-(trifluoromethyl)-phenyl)thiazol-5-yl)propyl)phenoxy)-2-methylpropanoic acid] | 127 |  | 77 |  |
| COC(CCc1cc(C)c(OC(C)(C)C(=O)O)c(C)c1)c1ccc(SC)cc1 (stereo not drawn) [Cpd. 13, 2-[2,6-dimethyl-4-[3-[4-(methylthio)phenyl]-3-methoxypropyl]phenoxy]-2-methylpropanoic acid] | 111 |  | 18 | inhibition at 1 µM [5, 6]: 99%; inhibition at 1 µM [5, 7]: 0%; % Inhibition of caspase activity over mean Veh. ([4]; 0.3 μM): 79% |
| COC(CCc1cc(C)c(OC(C)(C)C(=O)O)c(C)c1)c1ccc(Br)cc1 (stereo not drawn) [Cpd. 14, 2-[2,6-dimethyl-4-[3-[4-bromophenyl]-3-methoxypropyl]phenoxy]-2-methylpropanoic acid] | 107 | 77 | 28 |  |
| CC(C)(Oc1ccc(CCNC(=O)c2ccc(Cl)cc2)cc1)C(=O)O [Cpd. 17, bezafibrate, reference compound] | 54 |  |  |  |
| CC[C@@H](Oc1cccc(CN(CCCOc2ccc(OC)cc2)c2nc3ccccc3o2)c1)C(=O)O [Cpd. 18, pemafibrate, reference compound] | 123 |  |  |  |
| CCc1ccc(CCOc2ccc(CC3SC(=O)NC3=O)cc2)nc1 (stereo not drawn) [Cpd. 21, pioglitazone, reference compound] | 121 | 60 | 19 |  |
| CN(CCOc1ccc(CC2SC(=O)NC2=O)cc1)c1ccccn1 (stereo not drawn) [Cpd. 22, rosiglitazone, reference compound] |  |  |  | % inhibition of MCP1 secretion over mean Veh. ([5]; 1 μM): 79%; % inhibition of TNFα secretion over mean Veh. ([5]; 1 μM): 36%; % inhibition of MCP1 secretion over mean Veh. ([5]; 10 μM): 117%; % inhibition of TNFα secretion over mean Veh. ([5]; 10 μM): 11% |
| O=C(O)CCCc1cc2cc(Cl)ccc2n1S(=O)(=O)c1ccc2ncsc2c1 [Cpd. 23, lanifibranor, reference compound] | 126 |  | 32 |  |
